Data reported in patent US12569577B2, “PSMA-targeting imaging agents” (The Cleveland Clinic Foundation, priority 2019, dated 2026).
Where two headings read alike, the source gives them in different places. *1 amine or outer side, *2 acyl side, *3 side chain or, on linkers, in order; H or OH if unused. Where a SMILES comes first, the peptide text is derived from it. The star is where a group is joined. DOTA = O=C(O)CN1CCN(CC(=O)O)CCN(CC(=O)*)CCN(CC(=O)O)CC1; γGlu = O=C(O)[CH](CCC(=O)[*:2])N[*:1]; CO = O=C([*:1])[*:2]; Ahx = NCCCCCC(=O)O

What was measured:
[1] = molecular target: T1, PSMA (Homo sapiens, UniProt Q04609); experiment: Competitive binding assay: NAAG hydrolysis by PC3-PIP membranes, Amplex Red glutamic acid readout; type: biochemical; details: for EC50: PC3-PIP membranes
T1 construct: expressed in transfected cells; host or cells: PC3-PIP cells (washed membrane preparation after freeze/thaw)
T1 sequence (Q04609 whole entry): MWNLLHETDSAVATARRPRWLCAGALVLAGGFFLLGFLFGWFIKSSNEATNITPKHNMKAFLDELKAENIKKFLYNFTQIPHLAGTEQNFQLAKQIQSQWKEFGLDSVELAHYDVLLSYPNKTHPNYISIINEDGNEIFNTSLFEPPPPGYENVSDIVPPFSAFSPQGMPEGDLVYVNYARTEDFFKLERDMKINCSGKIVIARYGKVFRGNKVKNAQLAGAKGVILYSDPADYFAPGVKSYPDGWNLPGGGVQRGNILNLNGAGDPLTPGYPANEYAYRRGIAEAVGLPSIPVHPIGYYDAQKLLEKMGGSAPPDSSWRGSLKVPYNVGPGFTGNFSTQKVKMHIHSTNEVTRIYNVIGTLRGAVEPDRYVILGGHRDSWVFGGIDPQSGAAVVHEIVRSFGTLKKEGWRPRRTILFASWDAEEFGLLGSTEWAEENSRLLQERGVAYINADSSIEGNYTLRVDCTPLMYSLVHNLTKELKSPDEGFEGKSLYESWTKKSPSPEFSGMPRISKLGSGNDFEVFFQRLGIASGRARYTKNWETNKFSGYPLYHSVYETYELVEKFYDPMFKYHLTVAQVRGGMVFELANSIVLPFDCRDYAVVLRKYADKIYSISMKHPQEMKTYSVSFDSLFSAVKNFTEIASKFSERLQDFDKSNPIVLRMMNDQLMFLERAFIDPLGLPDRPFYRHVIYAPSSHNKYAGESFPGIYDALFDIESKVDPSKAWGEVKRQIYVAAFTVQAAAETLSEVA
Method: PC3-PIP PSMA-expressing cells were grown to confluency, harvested in 50 mM Tris-HCl (pH 7.5) and subjected to four freeze/thaw cycles. Cell membranes were washed three times by centrifugation at 12,000g or higher. The cell membranes were diluted to 50 mg/mL in 50 mM Tris-HCl (pH 7.5) (based on wet weight of the solid after centrifugation). Binding assays were conducted in 96 well plates. Phase 1 of the assay used wells containing 100 microliters 50 mM Tris-HCl (pH 7.5) with 4 microns NAAG and 10 microns of PC3-PIP membrane, to which differing concentrations of Compound 1 was added. The 96 well plate was incubated at 37° C. for 2 h. The glutamic acid concentration was measured with the Amplex Red glutamic acid assay kit (Invitrogen-Molecular Probes) using a fluorescent plate reader (530 nm excitation, 590 nm emission). The resulting fluorescence signals were normalized, and normalized fluorescence plotted against the concentration of ligand (log (nm)) (FIG. 1). EC50 was determined according to Eq. 1 (below). [formula]

[2] = system: prostate cancer lesions; details: cited from earlier work
[3] = 68Ga-labelled; Rousseau et al.; cited from earlier work

Structure (SMILES): O=C(O)CCC(NC(=O)NC(CCCCNC(=O)CCC(NC(=O)CCC(NC(=O)c1ccc(F)nc1)C(=O)O)C(=O)O)C(=O)O)C(=O)O (stereo not shown) [Compound 11]
- EC50 ([1]; FIG. 2 and FIG. 3): ~0.1 nM

Structure (SMILES): O=C(O)CCC(NC(=O)NC(CCCCNC(=O)CCC(NC(=O)CCC(NC(=O)C(Cc1ccc(O)cc1)NC(=O)CN1CCN(CC(=O)O)CCN(CC(=O)O)CCN(CC(=O)O)CC1)C(=O)O)C(=O)O)C(=O)O)C(=O)O (stereo not shown) [Compound 14, E′K-E!E!Y-DOTA]
- EC50 ([1]; FIG. 2 and FIG. 3): 0.39 ± 0.02 nM

Structure (SMILES): O=C(O)CCc1ccc(O)c(CN(CCN(CC(=O)O)Cc2cc(CCC(=O)NCCCCCC(=O)NCCCC[C@H](NC(=O)N[C@@H](CCC(=O)O)C(=O)O)C(=O)O)ccc2O)CC(=O)O)c1 [PSMA 11, Glu-NH—CO—NH-Lys (Ahx)-[^68Ga(HBEDCC], metal not drawn]
- (per patient) lesion detection rate ([2]; PSA <2.2 ng/ml): 60%
- (per patient) lesion detection rate ([2]; PSA >2.2 ng/ml): 100%
- Biodistribution Blood [3]: 0.31% ± 0.08%
- Biodistribution Kidney [3]: 182% ± 33%
- Biodistribution Liver [3]: 0.44% ± 0.13%
- Biodistribution Muscle [3]: 0.54% ± 0.14%
- Biodistribution Salivary Gland [3]: 10.00% ± 2.52%
- Biodistribution Spleen [3]: 22.2% ± 7.91%
- Biodistribution Tumor [3]: 8.67% ± 1.97%

Structure (SMILES): NC(=O)C(CCCCNC(=O)CN1CCN(CC(=O)O)CCN(CC(=O)O)CCN(CC(=O)O)CC1)NC(=O)C(Cc1ccc(O)cc1)NC(=O)C(CCC(=O)O)NC(=O)C(CCC(=O)O)NC(=O)C(CCC(=O)O)NC(=O)CCCCCNC(=O)CCC(NC(=O)NC(CCC(=O)O)C(=O)O)C(=O)O (stereo not shown) [Compound 1] ({Glu-CO-γGlu-Ahx}-EEEYK(DOTA)-NH2; configuration not given here)
- EC50 ([1]; NAAG substrate, 37° C. 2 h, FIG. 1): 0.287 ± 0.064 nM
- Ki ([1]; calculated from the competitive binding assay, read-out: estimated Ki to PSMA): < 0.3 nM
